Experimental data from patent publication US8815891B2, “Tricyclic derivative or pharmaceutically acceptable salts thereof, preparation method thereof, and pharmaceutical composition containing the same” (Je Il Pharmaceutical Co., Ltd., priority 2008, dated 2014).
Structures can show the parent of a compound that is named as a salt. Where two headings read alike, the source gives them in different places.

Columns and labels:
PARP-1 enzyme [1] = molecular target: PARP-1 enzyme (Homo sapiens (Human), UniProt P09874); assay: Poly(ADP-ribose)polymerase [PARP-1] enzyme inhibitory activity (Trevigen PARP Assay kit); type: biochemical; settings: read-out: PARP-1 Inhibitory activity IC50
Chain of PARP-1 enzyme (Homo sapiens (Human), UniProt P09874) (P09874 whole entry): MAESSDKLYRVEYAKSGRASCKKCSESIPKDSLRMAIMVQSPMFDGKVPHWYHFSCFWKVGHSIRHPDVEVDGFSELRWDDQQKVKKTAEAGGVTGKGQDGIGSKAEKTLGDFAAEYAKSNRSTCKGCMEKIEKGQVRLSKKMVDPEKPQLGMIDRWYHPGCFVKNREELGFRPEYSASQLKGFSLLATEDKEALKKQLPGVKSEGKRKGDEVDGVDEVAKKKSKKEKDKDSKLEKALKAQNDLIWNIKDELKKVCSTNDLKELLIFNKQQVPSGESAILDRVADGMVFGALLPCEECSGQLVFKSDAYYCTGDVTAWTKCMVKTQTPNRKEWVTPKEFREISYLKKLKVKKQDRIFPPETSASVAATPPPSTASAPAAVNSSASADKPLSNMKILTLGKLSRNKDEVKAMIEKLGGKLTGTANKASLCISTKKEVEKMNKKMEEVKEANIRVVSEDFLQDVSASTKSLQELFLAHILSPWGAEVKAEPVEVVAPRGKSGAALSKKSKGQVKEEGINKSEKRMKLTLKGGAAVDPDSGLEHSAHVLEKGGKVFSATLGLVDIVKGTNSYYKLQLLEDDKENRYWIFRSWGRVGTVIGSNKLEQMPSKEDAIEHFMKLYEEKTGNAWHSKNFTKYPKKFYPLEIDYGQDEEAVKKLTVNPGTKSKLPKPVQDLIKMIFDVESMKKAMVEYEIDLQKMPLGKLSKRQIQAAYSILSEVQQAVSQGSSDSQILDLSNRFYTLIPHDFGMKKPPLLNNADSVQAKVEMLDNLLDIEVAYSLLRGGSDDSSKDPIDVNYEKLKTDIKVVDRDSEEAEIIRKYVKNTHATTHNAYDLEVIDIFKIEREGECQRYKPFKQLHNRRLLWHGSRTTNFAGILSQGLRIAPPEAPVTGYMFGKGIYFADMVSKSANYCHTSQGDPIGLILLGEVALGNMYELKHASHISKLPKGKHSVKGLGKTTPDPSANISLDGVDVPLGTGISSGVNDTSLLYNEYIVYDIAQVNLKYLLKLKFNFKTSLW
Experimental: The activity of the compounds according to the present invention to inhibit the PARP-1 enzyme was examined using a PARP Assay kit (4671-096-K) purchased from Trevigen. The assay was performed following a modified previously reported method by Lee et al [Methods Find, Exp. Clin. Pharmacol., 27, 617-622, 2005].
Histone was coated on 384-well plate, which is a small volume PS plate (784101) of Greiner Bio-One, and left at 25° C. for 2 hours. After that, the plate was rinsed four times with PBS (7.5 mM Na2HPO4, 2.5 mM NaH2PO4, 145 mM NaCl, pH 7.4), and in order to prevent non-specific reaction, the Strep-diluent (provided from kit of Trevigen) was added and left at 25° C. for one hour. After one hour, the plate was again rinsed with PBS four times, and the compounds of the Examples in various concentrations were put into reactant containing PARP-1 enzyme (0.12 unit/well), 2×PARP cocktail (1.95 mM NAD^+, 50 uM biotinylated NAD^+, and activated DNA in 50 mM Tris pH 8.0, 25 mM MgCl2) and allowed to react at 25° C. for 30 minutes. After 30 minutes, each well was rinsed with PBS four times, and in order to measure the amount of rybosylation by the PARP enzyme, strepavidin-linked peroxidase (Strep-HRP, 1:1000 diluted) was added and allowed to react at 37° C. for 30 minutes. The plate was rinsed with PBS four times, and TACS-Sapphire substrate was put and allowed to react at 25° C. for 10 minutes so that color reaction occurred. Finally, the reaction was terminated by the addition of 0.2 N HCl. The amount of histone ribosylation formed by PARP-1 enzyme was quantified at 450 nm using Wallac EnVision™ (PerkinElmer Oy, Turku, Finland).

PARP-1 enzyme [2] = molecular target: PARP-1 enzyme (Cricetulus griseus (Chinese hamster) (Cricetulus barabensis griseus), UniProt Q9R152); assay: Intracellular PARP inhibitory activity (NAD(P)H released by MMS-treated CHO-K1 cells); type: cell-based
Chain of PARP-1 enzyme (Cricetulus griseus (Chinese hamster) (Cricetulus barabensis griseus), UniProt Q9R152) (Q9R152 whole entry): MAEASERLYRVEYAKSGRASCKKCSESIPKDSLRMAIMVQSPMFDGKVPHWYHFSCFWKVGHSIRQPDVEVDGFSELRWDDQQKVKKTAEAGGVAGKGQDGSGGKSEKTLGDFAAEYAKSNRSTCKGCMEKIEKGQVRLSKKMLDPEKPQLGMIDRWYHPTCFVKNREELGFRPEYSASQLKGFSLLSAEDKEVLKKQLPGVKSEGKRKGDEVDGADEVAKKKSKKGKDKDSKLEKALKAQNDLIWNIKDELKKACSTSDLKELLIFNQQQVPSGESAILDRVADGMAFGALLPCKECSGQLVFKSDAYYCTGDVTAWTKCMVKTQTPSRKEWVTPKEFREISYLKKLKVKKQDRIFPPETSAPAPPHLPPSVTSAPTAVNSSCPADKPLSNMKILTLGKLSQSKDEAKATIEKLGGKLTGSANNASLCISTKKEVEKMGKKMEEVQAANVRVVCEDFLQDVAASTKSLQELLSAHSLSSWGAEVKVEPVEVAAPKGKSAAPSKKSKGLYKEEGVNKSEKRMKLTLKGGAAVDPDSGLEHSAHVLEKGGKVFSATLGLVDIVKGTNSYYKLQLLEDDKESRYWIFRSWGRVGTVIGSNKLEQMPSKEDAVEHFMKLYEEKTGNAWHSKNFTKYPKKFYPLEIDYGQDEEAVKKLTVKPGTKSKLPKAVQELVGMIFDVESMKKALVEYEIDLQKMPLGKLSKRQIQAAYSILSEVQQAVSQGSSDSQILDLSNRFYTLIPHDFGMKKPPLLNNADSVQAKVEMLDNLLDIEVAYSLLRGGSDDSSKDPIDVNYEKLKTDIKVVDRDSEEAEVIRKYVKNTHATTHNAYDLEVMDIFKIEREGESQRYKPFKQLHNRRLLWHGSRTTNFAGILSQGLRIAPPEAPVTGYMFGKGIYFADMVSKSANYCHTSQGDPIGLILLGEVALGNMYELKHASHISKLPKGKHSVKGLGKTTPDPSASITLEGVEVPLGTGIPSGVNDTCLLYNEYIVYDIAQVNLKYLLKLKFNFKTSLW
Experimental: In order to verify the ability of the compounds of the present invention to inhibit the PARP-1 enzyme activity, the amount of NAD(P)H accumulated on cell culture medium was measured.
The Chinese hamster ovary cells (CHO-K1) were cultured in RPMI1640 culture medium containing 10% fetal bovine serum (FBS). The cultured CHO-K1 cells were seeded into 96 well plate by 2.9×10^3 cells/well, and cultured for 16 hours under culture condition of 37° C., 5% CO2. After the culture, the cells were treated with the compounds of the Examples at varying concentrations, and cultured at 37° C. for 2 hours. […] The amount of […] released to the culture medium 3, 4, 5 hours after the treatment with MMS was quantified at 450 nm using Wallac EnVision™ (PerkinElmer Oy, Turku, Finland). The transference numbers of the compounds at varying concentrations according to the present invention are the average values obtained from four wells, and the results were calculated using regression analysis.
The Chinese hamster ovary cells (CHO-K1) were treated with the compounds at varying concentration according to the present invention, and the amount of NAD(P)H released into the culture medium 4 hours after the MMS treatment was quantified.

[3] = PARP-1 enzyme, histone ribosylation, 450 nm

| Compound | IC50 (PARP-1 enzyme [1]) [nM] | IC50 (PARP-1 enzyme [2]) [nM] | IC50 (PARP-1 enzyme [1]; [3]) [nM] | other results |
| --- | --- | --- | --- | --- |
| CCNCc1ccc2c3c(c(=O)[nH]c2c1)CCCN3 [Example 43, 8-[(Ethylamino)methyl]-1,2,3,4-tetrahydrobenzo[h][1,6]naphthyridine-5(6H)-one dihydrochloride] | 160 | 1770 | – | – |
| CN(C)c1ccc2c3c(c(=O)[nH]c2c1)CCCN3 [Example 37, 8-(Dimethylamino)-1,2,3,4-tetrahydrobenzo[h][1,6]naphthyridine-5(6H)-one hydrochloride] | – | – | > 4000 | IC50 (PARP-1 enzyme [2]; CHO-K1 cells, NAD(P)H released 4 hours after MMS treatment, read-out: PARP-1 Inhibitory activity IC50): 4860 nM |
| CN(C)Cc1ccc2c3c(c(=O)[nH]c2c1)CCCN3 [Example 41, 8-[(Dimethylamino)methyl]-1,2,3,4-tetrahydrobenzo[h][1,6]naphthyridine-5(6H)-one dihydrochloride] | 40 | 50 | – | – |
| COCCOc1cc(CN2CCOCC2)cc2[nH]c(=O)c3c(c12)NCCC3 [Example 117, 10-(2-Methoxyetoxy)-8-(morpholinomethyl)-1,2,3,4-tetrahydrobenzo[h][1,6]naphthyridine-5(6H)-one dihydrochloride] | – | 6320 | 610 | – |
| CCCOc1cc(CN(C)C)cc2[nH]c(=O)c3c(c12)NCCC3 [Example 110, 8-[(Dimethylamino)methyl)]-10-propoxy-1,2,3,4-tetrahydrobenzo[h][1,6]naphthyridine-5(6H)-one dihydrochloride] | – | 90 | 80 | – |
| CCCOc1cc(CN2CCOCC2)cc2[nH]c(=O)c3c(c12)NCCC3 [Example 111, 8-(Morpholinomethyl)-10-propoxy-1,2,3,4-tetrahydrobenzo[h][1,6]naphthyridine-5(6H)-one dihydrochloride] | 960 | 1330 | – | – |
| CCOc1cc(CNC)cc2[nH]c(=O)c3c(c12)NCCC3 [Example 103, 10-Etoxy-8-[(methylamino)methyl]-1,2,3,4-tetrahydrobenzo[h][1,6]naphthyridine-5(6H)-one dihydrochloride] | – | 820 | 120 | – |
| CC(c1ccc2c3c(c(=O)[nH]c2c1)CCCN3)N(C)C (stereo not drawn) [Example 38, 8-[1-(Dimethylamino)ethyl]-1,2,3,4-tetrahydrobenzo[h][1,6]naphthyridine-5(6H)-one dihydrochloride] | 50 | 140 | < 1000 | – |
| CCN(C)Cc1ccc2c3c(c(=O)[nH]c2c1)CCCN3 [Example 47, 8-{[Ethyl(methyl)amino]methyl}-1,2,3,4-tetrahydrobenzo[h][1,6]naphthyridine-5(6H)-one dihydrochloride] | 70 | 250 | – | – |
| CCOc1cc(CN(C)C)cc2[nH]c(=O)c3c(c12)NCCC3 [Example 100, 8-[(Dimethylamino)methyl]-10-etoxy-1,2,3,4-tetrahydrobenzo[h][1,6]naphthyridine-5(6H)-one dihydrochloride] | – | 60 | – | – |
| COCCN(C)Cc1ccc2c3c(c(=O)[nH]c2c1)CCCN3 [Example 60, 8-{[(2-Methoxyethyl)(methyl)amino]methyl}-1,2,3,4-tetrahydrobenzo[h][1,6]naphthyridine-5(6H)-one dihydrochloride] | 120 | – | – | – |
| CN(C)CCCc1ccc2[nH]c(=O)c3c(c2c1)NCCC3 [Example 33, 9-[3-(Dimethylamino)propyl]-1,2,3,4-tetrahydrobenzo[h][1,6]naphthyridine-5(6H)-one dihydrochloride] | 930 | – | < 1000 | – |
| O=c1[nH]c2cc(Cc3nnn[nH]3)ccc2c2c1CCCN2 [Example 95, 8-[(1H-tetrazole-5-yl)methyl]-1,2,3,4-tetrahydrobenzo[h][1,6]naphthyridine-5(6H)-one hydrochloride] | 490 | – | – | – |
| COc1cc(CN(C)C2CCCC2)cc2[nH]c(=O)c3c(c12)NCCC3 [Example 92, 8-{[Cyclopentyl(methyl)amino]methyl}-10-methoxy-1,2,3,4-tetrahydrobenzo[h][1,6]naphthyridine-5(6H)-one dihydrochloride] | 190 | – | – | – |
| COc1cc(CN2CC=CC2)cc2[nH]c(=O)c3c(c12)NCCC3 [Example 82, 8-[(2,5-Dihydro-1H-pyrrole-1-yl)methyl]-10-methoxy-1,2,3,4-tetrahydrobenzo[h][1,6]naphthyridine-5(6H)-one dihydrochloride] | 60 | – | – | – |
| O=c1[nH]c2cc(CN3CCCC3)ccc2c2c1CCCN2 [Example 67, 8-(Pyrrolidine-1-ylmethyl)-1,2,3,4-tetrahydrobenzo[h][1,6]naphthyridine-5(6H)-one dihydrochloride] | – | – | < 1000 | IC50 (PARP-1 enzyme [1]; dihydrochloride): 760 nM |
| O=c1[nH]c2cc(Cn3ccnc3)ccc2c2c1CCCN2 [Example 64, 8-[(1H-Imidazole-1-yl)methyl]-1,2,3,4-tetrahydrobenzo[h][1,6]naphthyridine-5(6H)-one hydrochloride] | – | – | 540 | – |
| COCCOc1cc(CN(C)C)cc2[nH]c(=O)c3c(c12)NCCC3 [Example 116, 8-[(Dimethylamino)methyl]-10-(2-methoxyetoxy)-1,2,3,4-tetrahydrobenzo[h][1,6]naphthyridine-5(6H)-one dihydrochloride] | – | – | 180 | – |
| O=c1[nH]c2ccc(OCCN3CCC(c4ccccc4)CC3)cc2c2c1CCCN2 [Example 23, 9-[2-(4-Phenylpiperidine-1yl)ethoxy]-1,2,3,4-tetrahydrobenzo[h][1,6]naphthyridine-5(6H)-one dihydrochloride] | 1430 | – | – | – |
| CON=C1CCN(Cc2cc(OC)c3c4c(c(=O)[nH]c3c2)CCCN4)CC1 [Example 80, 10-Methoxy-8-[(4-(methoxyimino)piperidine-1-yl)methyl]-1,2,3,4-tetrahydrobenzo[h][1,6]naphthyridine-5(6H)-one trihydrochloride] | 140 | – | – | – |
| COc1cc(CNC(C)C)cc2[nH]c(=O)c3c(c12)NCCC3 [Example 88, 8-[(Isopropylamino)methyl]-10-methoxy-1,2,3,4-tetrahydrobenzo[h][1,6]naphthyridine-5 (6H)-one dihydrochloride] | 110 | – | – | – |
| CCN(C)Cc1ccc2c3c(c(=O)[nH]c2c1)CCCN3C [Example 71, 8-{[Ethyl(methyl)amino]methyl}-1-methyl-1,2,3,4-tetrahydrobenzo[h][1,6]naphthyridine-5(6H)-one dihydrochloride] | 3000 | – | – | – |
| CCc1ccc2c3c(c(=O)[nH]c2c1)CCCN3 [Example 40, 8-Ethyl-1,2,3,4-tetrahydrobenzo[h][1,6]naphthyridine-5(6H)-one hydrochloride] | > 4000 | – | – | – |
| CN1CCCc2c1c1ccc(CN3CCCCC3)cc1[nH]c2=O [Example 69, 1-Methyl-8-(piperidine-1-ylmethyl)-1,2,3,4-tetrahydrobenzo[h][1,6]naphthyridine-5(6H)-one dihydrochloride] | – | – | > 4000 | – |
| CN1CCN(Cc2ccc3c4c(c(=O)[nH]c3c2)CCCN4)CC1 [Example 55, 8-[(4-Methylpiperazine-1-yl)methyl]-1,2,3,4-tetrahydrobenzo[h][1,6]naphthyridine-5(6H)-one trihydrochloride] | 1720 | – | – | – |
| CN(C)CCOc1ccc2[nH]c(=O)c3c(c2c1)NCCC3 [Example 16, 9-[2-(Dimethylamino)ethoxy]-1,2,3,4-tetrahydrobenzo[h][1,6]naphthyridine-5(6H)-one dihydrochloride] | 370 | – | < 1000 | – |
| COc1ccc2[nH]c(=O)c3c(c2c1)N(C)CCC3 [Example 8, 9-Methoxy-1-methyl-1,2,3,4-tetrahydrobenzo[h][1,6]naphthyridine-5(6H)-one hydrochloride] | – | – | > 4000 | – |
| CCNCc1cc(OC)c2c3c(c(=O)[nH]c2c1)CCCN3 [Example 75, 8-[(Ethylamino)methyl]-10-methoxy-1,2,3,4-tetrahydrobenzo[h][1,6]naphthyridine-5(6H)-one dihydrochloride] | 50 | – | – | – |
| COc1cc(CN(C)C2CCOCC2)cc2[nH]c(=O)c3c(c12)NCCC3 [Example 115, 10-Methoxy-8-{[methyl(tetrahydro-2H-pyran-4-yl)amino]methyl}-1,2,3,4-tetrahydrobenzo[h][1,6]naphthyridine-5(6H)-one dihydrochloride] | 410 | – | – | – |
